The values that follow come from patent US11046686B2, “Thiadiazole IRAK4 compounds” (Gilead Sciences, Inc., priority 2018, dated 2021).

In this experiment the test system is TNFα. As to the kind of experiment: IRAK4 Monocyte TNFα Cell Based Assay. More on the design: species or system human. Conditions: human monocytes; second part of Table 2, compounds 33-343; unit inferred; read-out: EC50 MONO TNF HTRF. How it is done:
IRAK4 Monocyte TNFα Cell Based Assay Procedure:
The cell suspension was then plated at a density of 5,000 cells/well onto black 384 well Greiner clear bottom plates. Plates were pre-spotted with test compounds and serially diluted in DMSO where 40 nL/well were delivered using the Echo 550 acoustic liquid dispenser (Labcyte®) for a final DMSO concentration of 0.1%. Plated cells were treated with compound for 1 hour at 37° C. Cells were then stimulated with 50 pg/ml of LPS (Sigma) excluding outside columns of plate used for unstimulated cell control wells. Cells were incubated for an additional 4 hours at 37° C. Cells were then spun out of the media and 5 μl of sample were taken and analyzed for total TNFα content using the TR-FRET Human TNFα detection system (CisBio). This system utilizes two labeled antibodies (cryptate and XL665) that bind to two different epitopes of the TNFα molecule and produce FRET signal proportional to the concentration of TNFα in the sample. Detection antibodies are mixed 50:50 and 5 μL were dispensed into each well. Plates were covered with clear seals and incubated at room temp overnight. […] Percent of control was calculated as follows: % Control=100×(Ratiosample−Ratio0% stimulation)/(Ratio100% Stimulation−Ratio0% Stimulation) where unstimulated cells (0% stimulation) were the negative control and stimulated cells (100% stimulation) were used as the positive control.
By EC50 is commonly meant the concentration at which the effect is half-maximal. In the case of `COC(=O)N[C@@H]1[C@@H]2CC[C@H]1CN(c1nnc(-c3cnc(-c4ccc5cc(C#N)cnn45)cc3NC(C)C)s1)C2` [Example 59, methyl ((1R,5S,8s)-3-(5-(6-(3-cyanopyrrolo[1,2-b]pyridazin-7-yl)-4-(isopropylamino)pyridin-3-yl)-1,3,4-thiadiazol-2-yl)-3-azabicyclo[3.2.1]octan-8-yl)carbamate], the EC50 came to 14.7 nM.
`CC(C)Nc1cc(-c2ccc3cc(C#N)cnn23)ncc1-c1nnc(N2C[C@H]3CC[C@@H](C2)[C@@H]3N)s1` [Example 60, 7-(5-(5-((1R,5S,8s)-8-amino-3-azabicyclo[3.2.1]octan-3-yl)-1,3,4-thiadiazol-2-yl)-4-(isopropylamino)pyridin-2-yl)pyrrolo[1,2-b]pyridazine-3-carbonitrile]: the half-maximal effective concentration (EC50) came out at 8.5 nM.
With `CC(=O)N[C@@H]1CCN(c2nnc(-c3cnc(-c4ccc5cc(C#N)cnn45)cc3NC(C)C)s2)C[C@@H]1O` [Example 63], the EC50 was 13.8 nM.
As to `CC(=O)N1CCC2(CC1)CN(c1nnc(-c3cnc(-c4ccc5cc(C#N)cnn45)cc3NC(C)C)s1)C2` [Example 67, 7-(5-(5-(7-acetyl-2,7-diazaspiro[3.5]nonan-2-yl)-1,3,4-thiadiazo1-2-yl)-4-(isopropylamino)pyridin-2-yl)pyrrolo[1,2-b]pyridazine-3-carbonitrile], the EC50 turned out to be 10.4 nM.
Take `CC(=O)N[C@@H]1C[C@H]2C[C@@H]1CN2c1nnc(-c2cnc(-c3ccc4cc(C#N)cnn34)cc2NC(C)C)s1` [Example 73, N-((1R,4R,5R)-2-(5-(6-(3-cyanopyrrolo[1,2-]pyridazin-7-yl)-4-(isopropylamino)pyridin-3-yl)-1,3,4-thiadiazol-2-yl)-2-azabicyclo[2.2.1]heptan-5-yl)acetamide]: the EC50 amounted to 64.1 nM.
Regarding `CC(=O)N1CCC2(CC1)CN(c1nnc(-c3cnc(-c4ccc5cc(C#N)cnn45)cc3NC3COC3)s1)C2` [Example 75, 7-(5-(5-(7-acetyl-2,7-diazaspiro[3.5]nonan-2-yl)-1,3,4-hiadiazol-2-yl)-4-(oxetan-3-ylamino)pyridin-2-yl)pyrrolo[1,2-b]pyridazine-3-carbonitrile], the EC50 came out at 3.2 nM.
Regarding `CC(=O)N1CCC2(CC1)CN(c1nnc(-c3cnc(-c4ccc5cc(C#N)cnn45)cc3NC3CCOCC3)s1)C2` [Example 76, 7-(5-(5-(7-acetyl-2,7-diazaspiro[3.5]nonan-2-yl)-1,3,4-hiadiazol-2-yl)-4-((tetrahydro-2H-pyran-4-yl)amino)pyridin-2-yl)pyrrolo[1,2-b]pyridazine-3-carbonitrile], the EC50 is 4.4 nM.
`CC(=O)NC1CCC2(CC1)CN(c1nnc(-c3cnc(-c4ccc5cc(C#N)cnn45)cc3N[C@H](C)C#N)s1)C2` [Example 77]: the concentration for a half-maximal effect (EC50) was determined as 3.9 nM.
The result for `CC(=O)NC1CCC2(CC1)CN(c1nnc(-c3cnc(-c4ccc5cc(C#N)cnn45)cc3NC3COC3)s1)C2` [Example 78, N-(2-(5-(6-(3-cyanopyrrolo[1,2-b]pyridazin-7-yl)-4-(oxetan-3-ylamino)pyridin-3-yl)-1,3,4-thiadiazo1-2-yl)-2-azaspiro[3.5]nonan-7-yl)acetamide] reads 8.9 nM; that for `CC(C)Nc1cc(-c2ccc3cc(C#N)cnn23)ncc1-c1nnc(C(C)(C)O)s1` [Example 80, 7-(5-(5-(2-hydroxypropan-2-yl)-1,3,4-thiadiazol-2-yl)-4-(isopropylamino)pyridin-2-yl)pyrro1o[1,2-b]pyridazine-3-carbonitrile], 114 nM; that for `CC(C)Nc1cc(-c2ccc3cc(C#N)cnn23)ncc1-c1nnc(N2CC3(CCC(C)(O)CC3)C2)s1` [Example 82, 7-(5-(5-(7-hydroxy-7-methyl-2-azaspiro[3.5]nonan-2-yl)-1,3,4-thiadiazo1-2-yl)-4-(isopropylamino)pyridin-2-yl)pyrrolo[1,2-b]pyridazine-3-carbonitrile], 23.1 nM.
With `CC(=O)N[C@H]1CC[C@@H](c2nnc(-c3cnc(-c4ccc5cc(C#N)cnn45)cc3NC(C)C)s2)OC1` [Example 84, N-((3S,6S)-6-(5-(6-(3-cyanopyrro1o[1,2-b]pyridazin-7-yl)-4-(isopropylamino)pyridin-3-yl)-1,3,4-thiadiazol-2-yl)tetrahydro-2H-pyran-3-yl)acetamide], the EC50 was determined as 8.6 nM.
The result for `CC(C)Nc1cc(-c2ccc3cc(C#N)cnn23)ncc1-c1nnc(N2C[C@H]3CC[C@@H](C2)[C@@H]3NC(=O)C(C)(C)O)s1` [Example 85, N-((1R,5S,8s)-3-(5-(6-(3-cyanopyrrolo[1,2-b]pyridazin-7-yl)-4-(isopropylamino)pyridin-3-yl)-1,3,4-thiadiazol-2-yl)-3-azabicyclo[3.2.1]octan-8-yl)-2-hydroxy-2-methylpropanamide] reads 3.3 nM; that for `C[C@H](C#N)Nc1cc(-c2ccc3cc(C#N)cnn23)ncc1-c1nnc(N2C[C@H]3CC[C@@H](C2)[C@@H]3NC(=O)C(C)(C)O)s1` [Example 86], 0.6 nM; that for `CC(C)(O)C(=O)N[C@@H]1[C@@H]2CC[C@H]1CN(c1nnc(-c3cnc(-c4ccc5cc(C#N)cnn45)cc3NC3COC3)s1)C2` [Example 87, N-((1R,5S,8s)-3-(5-(6-(3-cyanopyrrolo[1,2-b]pyridazin-7-yl)-4-(oxetan-3-ylamino)pyridin-3-yl)-1,3,4-thiadiazol-2-yl)-3-azabicyclo[3.2.1]octan-8-yl)-2-hydroxy-2-methylpropanamide], 2.1 nM.
Turning to `CC(C)Nc1cc(-c2ccc3cc(C#N)cnn23)ncc1-c1nnc(N2C[C@H]3CC[C@@H](C2)[C@@H]3NC(=O)[C@H]2C[C@](C)(O)C2)s1` [Example 92, (1r,3R)-N-((1R,5S,8s)-3-(5-(6-(3-cyanopyrrolo[1,2-b]pyridazin-7-yl)-4-(isopropylamino)pyridin-3-yl)-1,3,4-thiadiazol-2-yl)-3-azabicyclo[3.2.1]octan-8-yl)-3-hydroxy-3-methylcyclobutane-1-carboxamide], the half-maximal effective concentration (EC50) turned out to be 5 nM.
For `CC(C)Nc1cc(-c2ccc3cc(C#N)cnn23)ncc1-c1nnc(N2C[C@H]3CC[C@@H](C2)[C@@H]3NC(=O)[C@H]2C[C@@](C)(O)C2)s1` [Example 93, (1s,3S)-N-((1R,5S,8s)-3-(5-(6-(3-cyanopyrrolo[1,2-b]pyridazin-7-yl)-4-(isopropylamino)pyridin-3-yl)-1,3,4-thiadiazol-2-yl)-3-azabicyclo[3.2.1]octan-8-yl)-3-hydroxy-3-methylcyclobutane-1-carboxamide], the concentration giving a half-maximal response (EC50) stood at 5.9 nM.
Consider `CC(C)Nc1cc(-c2ccc3cc(C#N)cnn23)ncc1-c1nnc(N2C[C@H]3CC[C@@H](C2)[C@@H]3NC(=O)C2(C)COC2)s1` [Example 94], for which the EC50 was 4 nM.
Consider `CC(C)Nc1cc(-c2ccc3cc(C#N)cnn23)ncc1-c1nnc(N2C[C@H]3CC[C@@H](C2)[C@@H]3NC(=O)C2(C)CCOCC2)s1` [Example 95, N-((1R,5S,8s)-3-(5-(6-(3-cyanopyrrolo[1,2-b]pyridazin-7-yl)-4-(isopropylamino)pyridin-3-yl)-1,3,4-thiadiazol-2-yl)-3-azabicyclo[3.2.1]octan-8-yl)-4-methyltetrahydro-2H-pyran-4-carboxamide], for which the EC50 was 4.1 nM.
For the molecule `CC(C)Nc1cc(-c2ccc3cc(C#N)cnn23)ncc1-c1nnc(N2C[C@H]3CC[C@@H](C2)[C@@H]3NC(=O)C(C)(C)C(=O)O)s1` [Example 97], the EC50 was 21.7 nM.
Take `CC(C)Nc1cc(-c2ccc3cc(C#N)cnn23)ncc1-c1nnc(N2C[C@H]3CC[C@@H](C2)[C@@H]3NC(=O)CN=S(C)(C)=O)s1` [Example 98, N-((1R,5S,8s)-3-(5-(6-(3-cyanopyrrolo[1,2-b]pyridazin-7-yl)-4-(isopropylamino)pyridin-3-yl)-1,3,4-thiadiazol-2-yl)-3-azabicyclo[3.2.1]octan-8-yl)-2-((dimethyl(oxo)-16-sulfanylidene)amino)acetamide]: the EC50 is 3.2 nM.
With `CC(=O)NC1CCC2(CC1)CN(c1nnc(-c3cnc(-c4ccc5cc(C#N)cnn45)cc3NC3(C)COC3)s1)C2` [Example 99], the EC50 amounted to 5.8 nM.
Consider `CC(C)Nc1cc(-c2ccc3cc(C#N)cnn23)ncc1-c1nnc(N2C[C@H]3CC[C@@H](C2)[C@@H]3NC(=O)C2CCN(C)CC2)s1` [Example 100, N-((1R,5S,8s)-3-(5-(6-(3-cyanopyrrolo[1,2-b]pyridazin-7-yl)-4-(isopropylamino)pyridin-3-yl)-1,3,4-thiadiazol-2-yl)-3-azabicyclo[3.2.1]octan-8-yl)-1-methylpiperidine-4-carboxamide], for which the EC50 was found to be 2.1 nM.
For the molecule `CC(C)(O)C(=O)N[C@@H]1[C@@H]2CC[C@H]1CN(c1nnc(-c3cnc(-c4ccc5cc(C#N)cnn45)cc3NC3CCOCC3)s1)C2` [Example 101, N-((1R,5S,8s)-3-(5-(6-(3-cyanopyrrolo[1,2-b]pyridazin-7-yl)-4-((tetrahydro-2H-pyran-4-yl)amino)pyridin-3-yl)-1,3,4-thiadiazol-2-yl)-3-azabicyclo[3.2.1]octan-8-yl)-2-hydroxy-2-methylpropanamide], the EC50 is 1.2 nM.
`CC(C)Nc1cc(-c2ccc3cc(C#N)cnn23)ncc1-c1nnc(N2C[C@H]3CC[C@@H](C2)[C@@H]3NC(=O)C(=O)N=S(C)(C)=O)s1` [Example 103, N1-((lR,5S,8s)-3-(5-(6-(3-cyanopyrrolo[1,2-b]pyridazin-7-yl)-4-(isopropylamino)pyridin-3-yl)-1,3,4-thiadiazol-2-yl)-3-azabicyclo[3.2.1]octan-8-yl)-N2-(dimethyl(oxo)-16-sulfanylidene)oxalamide]: the EC50 turned out to be 1.4 nM.
